Usually IC50 stands for the concentration that inhibits the measured activity by half.

Common to all, as to type: biochemical
For one experiment, the target named is PAK1 (Homo sapiens, UniProt Q13153). The experiment in a line: In vitro PAK inhibition assay (Z'-LYTE, SelectScreen), PAK1. As to conditions: read-out: PAK1 IC50. How it is done:
(§1) Compounds are screened in 1% DMSO (final) in the well. For 10 point titrations, 3-fold serial dilutions are conducted. All Peptide/Kinase Mixtures are diluted to a 2× working concentration in the appropriate Kinase Buffer
The 2×PAK1/Ser/Thr 19 mixture is prepared in 50 mM HEPES pH 7.5, 0.01% BRIJ-35, 10 mM MgCl2, 1 mM EGTA.
(§2) 1. Add the following solutions to a well in a 384-well plate: • 2.5 μL of 4× Test Compound OR (100 nL 100× Test Compound plus 2.4 μL kinase buffer) • 5 μL of 2× Peptide/Kinase (PAK) Mixture • 2.5 μL of 4×ATP Solution
(§3) 3. Incubate the PAK Kinase Reaction at room temperature for 60-minutes
(§4) 4. Add 5 μL of Development Reagent Solution to each well
(§5) 6. Incubate the Development Reaction for 60-minutes
(§6) 7. Determine the fluorescence using a fluorescence plate reader
(§7) SelectScreen® Kinase Profiling Service uses XLfit from IDBS.
(§8) The representative IC50 value with a known inhibitor for each kinase was determined at the ATP bin nearest to the ATP Km app.

For another experiment, the target named is PAK4 (Homo sapiens, UniProt O96013). The experiment in a line: In vitro PAK inhibition assay (Z'-LYTE, SelectScreen), PAK4. How it is done:
as §1
The 2×PAK-4/Ser/Thr 20 mixture is prepared in 50 mM HEPES pH 7.5, 0.01% BRIJ-35, 10 mM MgCl2, 1 mM EGTA. The final 10 μL Kinase Reaction consists of 0.1-0.75 ng PAK-4 and 2 μM Ser/Thr 20 in 50 mM HEPES pH 7.5, 0.01% BRIJ-35, 10 mM MgCl2, 1 mM EGTA. After the 1 hour Kinase Reaction incubation, 5 μL of a 1:256 dilution of Development Reagent A is added.
as §2, §3, §4, §5, §6
SelectScreen® Kinase Profiling Service uses XLfit from IDBS. The dose response curve is curve fit to model number 205 (sigmoidal dose-response model).
The table below provides specifications and data around each kinase. The representative IC50 value with a known inhibitor for each kinase was determined at the ATP bin nearest to the ATP Km app.

A further experiment addresses PAK2 (PAK65) (Homo sapiens, UniProt Q13177). The experiment in a line: In vitro PAK inhibition assay (Z'-LYTE, SelectScreen), PAK2. As to conditions: read-out: PAK2 IC50. How it is done:
as §1
The 2×PAK2 (PAK65)/Ser/Thr 20 mixture is prepared in 50 mM HEPES pH 7.5, 0.01% BRIJ-35, 10 mM MgCl2, 1 mM EGTA. The final 10 μL Kinase Reaction consists of 0.29-6 ng PAK2 (PAK65) and 2 μM Ser/Thr 20 in 50 mM HEPES pH 7.5, 0.01% BRIJ-35, 10 mM MgCl2, 1 mM EGTA.
as §2, §3, §4, §5, §6, §7, §8

The target in the next experiment is PAK3 (Homo sapiens, UniProt O75914). The experiment in a line: In vitro PAK inhibition assay (Z'-LYTE, SelectScreen), PAK3. As to conditions: read-out: PAK3 IC50. How it is done:
as §1
The 2×PAK3/Ser/Thr 20 mixture is prepared in 50 mM HEPES pH 7.5, 0.01% BRIJ-35, 10 mM MgCl2, 1 mM EGTA.
as §2, §3, §4, §5, §6, §7, §8

Molecules are shown by their SMILES.

Sequence of PAK2 (PAK65) (Q13177 whole entry): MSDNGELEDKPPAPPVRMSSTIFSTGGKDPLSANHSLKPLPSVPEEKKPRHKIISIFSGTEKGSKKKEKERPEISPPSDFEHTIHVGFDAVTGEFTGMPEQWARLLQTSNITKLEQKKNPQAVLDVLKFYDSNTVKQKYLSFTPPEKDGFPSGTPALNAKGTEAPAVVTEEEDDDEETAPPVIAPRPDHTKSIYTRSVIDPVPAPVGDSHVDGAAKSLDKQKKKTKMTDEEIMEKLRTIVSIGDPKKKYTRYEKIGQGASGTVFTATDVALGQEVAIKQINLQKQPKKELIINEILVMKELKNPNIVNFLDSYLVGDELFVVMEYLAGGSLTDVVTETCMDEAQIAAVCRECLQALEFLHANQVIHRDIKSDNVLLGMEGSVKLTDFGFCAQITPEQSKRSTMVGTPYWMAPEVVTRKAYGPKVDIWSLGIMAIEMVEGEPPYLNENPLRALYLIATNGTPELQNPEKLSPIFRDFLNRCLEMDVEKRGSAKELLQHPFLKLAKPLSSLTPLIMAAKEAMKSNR
Sequence of PAK4 (O96013 whole entry): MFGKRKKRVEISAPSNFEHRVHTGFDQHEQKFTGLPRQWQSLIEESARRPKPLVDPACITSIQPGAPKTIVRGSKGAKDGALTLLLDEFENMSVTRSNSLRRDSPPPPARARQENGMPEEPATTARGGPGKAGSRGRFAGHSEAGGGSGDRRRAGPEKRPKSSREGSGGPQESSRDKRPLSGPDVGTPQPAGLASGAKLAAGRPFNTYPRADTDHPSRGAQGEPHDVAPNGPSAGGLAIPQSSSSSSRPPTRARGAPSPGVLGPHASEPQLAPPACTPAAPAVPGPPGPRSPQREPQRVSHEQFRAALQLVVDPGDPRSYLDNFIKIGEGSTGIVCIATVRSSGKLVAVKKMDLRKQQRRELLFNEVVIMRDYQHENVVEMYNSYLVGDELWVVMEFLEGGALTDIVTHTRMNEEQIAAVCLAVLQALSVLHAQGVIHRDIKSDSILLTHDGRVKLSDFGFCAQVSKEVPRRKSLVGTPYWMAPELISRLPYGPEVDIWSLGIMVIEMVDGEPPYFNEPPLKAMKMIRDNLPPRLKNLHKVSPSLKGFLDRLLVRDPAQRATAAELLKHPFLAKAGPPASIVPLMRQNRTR
Sequence of PAK3 (O75914 1-544 isoform O75914-2): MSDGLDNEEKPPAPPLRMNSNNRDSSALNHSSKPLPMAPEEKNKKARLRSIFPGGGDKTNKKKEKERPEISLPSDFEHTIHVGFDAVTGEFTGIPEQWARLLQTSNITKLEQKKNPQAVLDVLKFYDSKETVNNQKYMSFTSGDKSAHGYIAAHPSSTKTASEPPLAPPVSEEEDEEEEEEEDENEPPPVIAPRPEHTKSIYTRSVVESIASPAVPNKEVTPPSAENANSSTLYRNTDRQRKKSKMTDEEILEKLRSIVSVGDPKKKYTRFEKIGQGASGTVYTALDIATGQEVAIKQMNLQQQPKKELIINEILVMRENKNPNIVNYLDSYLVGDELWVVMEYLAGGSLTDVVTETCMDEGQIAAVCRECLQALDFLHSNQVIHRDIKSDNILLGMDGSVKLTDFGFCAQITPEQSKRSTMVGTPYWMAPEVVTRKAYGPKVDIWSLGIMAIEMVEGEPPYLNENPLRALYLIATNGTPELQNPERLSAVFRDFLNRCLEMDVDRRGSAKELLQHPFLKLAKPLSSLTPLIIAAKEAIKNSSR
Sequence of PAK1 (Q13153 whole entry): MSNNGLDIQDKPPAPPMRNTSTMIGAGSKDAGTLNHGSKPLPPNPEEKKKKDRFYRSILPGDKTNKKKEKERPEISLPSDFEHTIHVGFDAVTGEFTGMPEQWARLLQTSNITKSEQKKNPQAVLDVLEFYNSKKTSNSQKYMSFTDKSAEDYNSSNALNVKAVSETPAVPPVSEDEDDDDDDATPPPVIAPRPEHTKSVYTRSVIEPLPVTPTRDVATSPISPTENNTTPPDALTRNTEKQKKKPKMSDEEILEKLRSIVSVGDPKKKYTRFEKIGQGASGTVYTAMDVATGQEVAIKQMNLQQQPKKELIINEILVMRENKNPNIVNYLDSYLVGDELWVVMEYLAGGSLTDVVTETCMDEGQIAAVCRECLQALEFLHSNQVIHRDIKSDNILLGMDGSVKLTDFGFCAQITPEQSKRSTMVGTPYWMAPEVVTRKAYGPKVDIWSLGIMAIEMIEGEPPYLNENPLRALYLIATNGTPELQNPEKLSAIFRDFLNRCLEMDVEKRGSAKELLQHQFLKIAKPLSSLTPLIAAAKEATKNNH

Turning to `CCn1c(=O)c(-c2cc(C)c(-c3noc(C)n3)cc2Cl)cc2cnc(N[C@@H]3CCOC3)nc21` [Example 73], the half-maximal inhibitory concentration (IC50) at PAK1 is 500 to 5000 nM; against PAK4 it was over 5000 nM; at PAK2 (PAK65), 500 to 5000 nM; at PAK3, 500 to 5000 nM.
Take `CCn1c(=O)c(-c2ccc(-c3noc(C)n3)cc2Cl)cc2cnc(NC3CCOCC3)nc21` [Example 4]: the IC50 on PAK1 is 50 to 500 nM; against PAK4, over 5000 nM; at PAK2 (PAK65), 50 to 500 nM; at PAK3, 50 to 500 nM.
In the case of `CCn1c(=O)c(-c2ccc(-c3cccnc3F)cc2Cl)cc2cnc(NC3CCOCC3)nc21` [Example 12], the IC50 on PAK1 is under 50 nM; against PAK4, over 5000 nM; at PAK2 (PAK65), 50 to 500 nM; on PAK3 it was under 50 nM.
With `CCn1c(=O)c(-c2ccc(-c3cncc(C)n3)cc2Cl)cc2cnc(NCCC3CCNCC3)nc21` [Example 135], the IC50 at PAK1 was under 50 nM; against PAK4, over 5000 nM; at PAK2 (PAK65), under 50 nM; at PAK3, under 50 nM.
Regarding `Cc1cnc(-c2ccc(-c3cc4cnc(NC5CCOCC5)nc4[nH]c3=O)c(Cl)c2)s1` [Example 14], the IC50 at PAK1 is over 5000 nM; against PAK4, over 5000 nM; at PAK2 (PAK65), over 5000 nM; at PAK3, 50 to 500 nM.
`CCn1c(=O)c(-c2ccc(-c3cncc(C)c3)cc2Cl)cc2cnc(N[C@@H]3CCOC3)nc21` [Example 61]: the IC50 was 50 to 500 nM at PAK1, over 5000 nM against PAK4, 50 to 500 nM at PAK2 (PAK65) and 500 to 5000 nM at PAK3.
Turning to `CCn1c(=O)c(-c2ccc(-c3cncc(C)n3)cc2Cl)cc2cnc(N[C@H]3CCCNC3=O)nc21` [Example 69], the IC50 at PAK1, against PAK4, at PAK2 (PAK65) and at PAK3 was over 5000 nM in each case.
As for `CCn1c(=O)c(-c2ccc(-c3nccnc3C)cc2Cl)cc2cnc(NC3CCN(C)CC3)nc21` [Example 5], the IC50 was 500 to 5000 nM at PAK1, over 5000 nM at PAK4, 500 to 5000 nM at PAK2 (PAK65) and 500 to 5000 nM at PAK3.
`CCn1c(=O)c(-c2ccc(-c3cncc(C)n3)cc2Cl)cc2cnc(N[C@H]3CC[C@H](N)CC3)nc21` [Example 85]: the 50% inhibitory concentration (IC50) at PAK1 is under 50 nM; at PAK4, over 5000 nM; at PAK2 (PAK65), under 50 nM; at PAK3, 50 to 500 nM.
In the case of `Cc1cncc(-c2ccc(-c3cc4cnc(NC5CCCCC5)nc4n([C@H]4CC[C@H](N)CC4)c3=O)c(Cl)c2)n1` [Example 114], the 50% inhibitory concentration (IC50) on PAK1 is under 50 nM; on PAK4, over 5000 nM; at PAK2 (PAK65) it was under 50 nM; on PAK3, 50 to 500 nM.
For the compound `CCn1c(=O)c(-c2ccc(-c3nccnc3C)cc2Cl)cc2cnc(NC3CCN(C(C)=O)CC3)nc21` [Example 80], the IC50 is 500 to 5000 nM on PAK1, over 5000 nM on PAK4, 50 to 500 nM at PAK2 (PAK65) and 500 to 5000 nM at PAK3.
Regarding `Cc1cncc(-c2ccc(-c3cc4cnc(N[C@@H]5CCOC5)nc4n(C4CCNCC4)c3=O)c(Cl)c2)n1` [Example 105], the IC50 was 50 to 500 nM on PAK1, over 5000 nM on PAK4, 50 to 500 nM at PAK2 (PAK65) and 50 to 500 nM at PAK3.
For `Cc1cncc(-c2ccc(-c3cc4cnc(N[C@H]5CCOC5)nc4n(C4CCN(C)CC4)c3=O)c(Cl)c2)n1` [Example 108], the IC50 at PAK1 is 50 to 500 nM; on PAK4, over 5000 nM; on PAK2 (PAK65), 50 to 500 nM; on PAK3, 50 to 500 nM.
`CCn1c(=O)c(-c2ccc(-c3cncc(C)n3)cc2Cl)cc2cnc(NCCCOCCCN(C)C)nc21` [Example 130]: the IC50 on PAK1 was 50 to 500 nM; against PAK4, over 5000 nM; at PAK2 (PAK65), 50 to 500 nM; at PAK3, 50 to 500 nM.
With `CCn1c(=O)c(-c2ccc(-c3nccnc3C)cc2Cl)cc2cnc(NC3C[C@@H](C)O[C@@H](C)C3)nc21` (some centres unmarked) [Example 38], the IC50 at PAK1 was under 50 nM; at PAK4, over 5000 nM; at PAK2 (PAK65) it was under 50 nM; on PAK3, 50 to 500 nM.
For `O=c1c(-c2ccc(-c3cccnc3)cc2Cl)cc2cnc(NC3CCOCC3)nc2n1Cc1ccccc1C(F)(F)F` [Example 22], the IC50 was 50 to 500 nM on PAK1, over 5000 nM against PAK4, under 50 nM on PAK2 (PAK65) and 50 to 500 nM on PAK3.
In the case of `CCn1c(=O)c(-c2ccc(-c3cncc(C)n3)cc2Cl)cc2cnc(NCC3CCC(N)CC3)nc21` (centres unmarked) [Example 131], the IC50 on PAK1 was under 50 nM; on PAK4, over 5000 nM; on PAK2 (PAK65) it was under 50 nM; at PAK3, 50 to 500 nM.
`CCn1c(=O)c(-c2ccc(-c3nccnc3C)cc2Cl)cc2cnc(NC3CCCNC3)nc21` (centres unmarked) [Example 82]: the IC50 on PAK1 is 50 to 500 nM; against PAK4 it was over 5000 nM; at PAK2 (PAK65) it was 50 to 500 nM; at PAK3, 500 to 5000 nM.
For `CCn1c(=O)c(-c2ccc(-c3cncc(C)n3)cc2Cl)cc2cnc(NCCCOCCCN)nc21` [Example 129], the IC50 at PAK1 is under 50 nM; at PAK4 it was over 5000 nM; at PAK2 (PAK65), under 50 nM; at PAK3, 50 to 500 nM.
Regarding `CCNc1ncc2cc(-c3ccc(-c4nccnc4C)cc3Cl)c(=O)n(CC)c2n1` [Example 6], the IC50 at PAK1 was 50 to 500 nM; at PAK4, over 5000 nM; on PAK2 (PAK65), 50 to 500 nM; on PAK3 it was 50 to 500 nM.
Turning to `Cc1nccnc1-c1ccc(-c2cc3cnc(NC4CCOCC4)nc3n(Cc3ccccc3C(F)(F)F)c2=O)c(Cl)c1` [Example 21], the IC50 at PAK1 is under 50 nM; at PAK4, over 5000 nM; on PAK2 (PAK65) it was under 50 nM; at PAK3 it was under 50 nM.
`CCn1c(=O)c(-c2ccc(-c3cncc(C)n3)cc2Cl)cc2cnc(NCC3CCC(N(C)C)CC3)nc21` (centres unmarked) [Example 132]: the IC50 on PAK1 is 50 to 500 nM; against PAK4, over 5000 nM; on PAK2 (PAK65) it was 50 to 500 nM; on PAK3, 50 to 500 nM.
In the case of `Cc1nccnc1-c1ccc(-c2cc3cnc(N[C@@H]4CCOC4)nc3n(Cc3ccncc3)c2=O)c(Cl)c1` [Example 124], the IC50 on PAK1 is 50 to 500 nM; at PAK4, over 5000 nM; at PAK2 (PAK65) it was 50 to 500 nM; at PAK3, 500 to 5000 nM.
For the compound `Cc1cncc(-c2ccc(-c3cc4cnc(NC5CCOCC5)nc4n(Cc4ccccc4C(F)(F)F)c3=O)c(Cl)c2)n1` [Example 20], the IC50 is 50 to 500 nM on PAK1, over 5000 nM on PAK4, under 50 nM on PAK2 (PAK65) and 50 to 500 nM at PAK3.
In the case of `Cc1cncc(-c2ccc(-c3cc4cnc(N[C@H]5CCOC5)nc4n([C@H]4CC[C@H](N)CC4)c3=O)c(Cl)c2)n1` [Example 110], the IC50 on PAK1 was under 50 nM; on PAK4, over 5000 nM; at PAK2 (PAK65), under 50 nM; on PAK3, under 50 nM.
Turning to `Cc1nccnc1-c1ccc(-c2cc3cnc(N[C@@H]4CCOC4)nc3n(Cc3cccnc3)c2=O)c(Cl)c1` [Example 122, (R)-6-(2-chloro-4-(3-methylpyrazin-2-yl)phenyl)-8-(pyridin-3-ylmethyl)-2-((tetrahydrofuran-3-yl)amino)pyrido[2,3-d]pyrimidin-7(8H)-one], the IC50 was 50 to 500 nM at PAK1, over 5000 nM at PAK4, under 50 nM at PAK2 (PAK65) and 50 to 500 nM on PAK3.
